Measured values taken from patent publication US20240366571A1, “MODULATORS OF SK4 POTASSIUM CHANNEL AND USES THEREOF” (Ramot at Tel-Aviv University Ltd., priority 2022, published 2024).

How the values were obtained:
isolated rat hearts = experiment: Atrial fibrillation induction by burst pacing with carbachol in isolated rat hearts
Experimental: Atrial Fibrillation induction in Sprague-Dawley rats: For evaluation of Tram-34 and BA6b9 on atrial fibrillation (AF) induction, a custom-made quadripolar electrode was inserted for simultaneous recording and pacing on the HRA. To increase susceptibility for reentry and atrial tachyarrhythmia, the cholinergic agonist carbachol was used. First, baseline AERP was measured under normal physiological conditions, and the measurement was repeated upon exposure to 0.3 μM carbachol, 0.3 μM carbachol+10 μM Tram-34 or 0.3 μM carbachol+10 μM BA6b9. Then, for AF induction, burst pacing was applied to the HRA under increasing pacing thresholds (2×, 3×, 4×, 5×, and 6× threshold). This protocol included two consecutive 5 second bursts at a cycle length of 20 milliseconds for each threshold. This protocol was tested under […] conditions: normal physiological conditions, 0.3 μM carbachol, 0.3 μM carbachol+10 μM Tram-34, or 0.3 μM carbachol+10 μM BA6b9. To determine AF susceptibility under each condition, an AFIS (AF induction score) ranking system was created, relying on the level of threshold intensity when AF induction was successful. Lower AF induction threshold means higher AFIS. The ranking was as follows: induction at 2×-diastolic threshold received the highest score of 5, at 3× the received score was 4, at 4× the received score was 3, at 5× the received score was 2, at 6× the received score was 1, and if no induction occurred it scored zero. For AF sustainability quantification, sustained AF was determined as lasting ≥5 minutes. Non-sustained AF received a score of zero and sustained AF received a score of 1.

[1] = system: rat model of heart failure (HF) post-myocardial infarction (MI); experiment: Rat model of heart failure post-myocardial infarction; assay type: in vivo; details: vs vehicle
Experimental: […] Experimental setup and details are described, for example, in Murninkas et al. Am J Physiol-Heart Circul Physiol. (2021), 320, H713-H24.
Following electrode implantation and animal recovery, baseline EP (electrophysiological) measurements were performed followed by random division of the animals to treatment with the exemplary compound vs. treatment with vehicle.
Masson-trichrome staining: staining was performed according to a standard procedure, as described, for example, in N. Foot, Stain Technology (2009), Volume 8, 1933—Issue 3, 101-110.

[2] = system: isolated guinea pig hearts; experiment: Langendorff perfused isolated guinea pig hearts; details: 10 μM
Experimental: Animals: Adult male Sprague-Dawley rats (n=56, 200-250 grams) and Guinea pigs (n=19, 400-700 grams) obtained from Envigo Laboratories (Jerusalem, Israel) were bred and grown in Ben-Gurion University of the Negev, Israel. Experiments in rats and guinea pigs were approved by the institutional ethics committee of Ben-Gurion University of the Negev, Israel (Protocol No. IL-24-05-2020(D) and were carried out in strict accordance with the Guide for the Care and Use of Laboratory Animals of the National Institutes of Health. The animals were kept under standardized conditions: 12:12 light: dark cycles at 20-24° C. and 30-70% relative humidity.
Perfused isolated hearts—Langendorff method: The isolated heart experiment setup was performed as described in Etzion et al., Am J Physiol Heart Circ Physiol (2008) 295, H1460-1469; and Mor et al., J Pharmacol Exp Ther (2013) 344, 59-67.]. Briefly, each animal was anesthetized with 2% isoflurane and an intraperitoneal (IP) injection of pentobarbital (60 mg/kg), followed by IP injection of Heparin (1000 U/kg). The heart was rapidly excised and placed into ice-cold Tyrode's buffer solution (consisted of 140 mM NaCl, 5.4 mM KCl, 0.5 mM MgCl2, 2.5 mM CaCl2, 0.39 mM NaH2PO4, 10 mM HEPES and 11 mM glucose, and titrated to pH 7.4 with NaOH). The aorta was cannulated and connected to a pre-heated (37° C.) and oxygenated perfusion system with Tyrode's solution while perfusion pressure was maintained at about 70 mmHg throughout the experiment. Prior to the experiment, the heart was left in Tyrode's solution to stabilize for 20 minutes for hemodynamic measurements, the left atrial appendage was excised, and a collapsed latex balloon was inserted into the left ventricle (LV) through the mitral valve. Once positioned, the balloon was filled with double distilled water reaching an end-diastolic pressure of 10-15 mmHg. Coronary perfusion pressure and LV pressure were recorded by a pressure amplifier (ETH-256C amplifier and B-100 probes, iWorx, NH, USA). Electrophysiological signals were recorded from the high right atrium (HRA) via a miniature quadripolar hook electrode (for simultaneous pacing and recording) and from the LV via a bipolar hook electrode. Electrical signals were filtered (1-2 kHz) and recorded by two voltage amplifiers (Model 3000, A-M Systems, Carlsberg, WA, USA). Signals were interfaced with a PC using an A/D converter (PCI-6024E, National Instruments, Austin TX, USA) and a custom-designed program developed with LabVIEW programing language (National Instruments, Austin, TX, USA) to control signal acquisition, data saving and off-line analysis. Measured physiological parameters during the experiment included perfusion flow (ml/minute) as a marker for coronary perfusion pressure, LV developed pressure, dP/dt±(representing the rate of rise of left ventricular pressure during isovolumetric contraction as a marker for LV contractility), heart rate, PR, and RR intervals. Tram-34 and BA6b9 were applied for a 20-minutes incubation period and physiological parameters were recorded.
Effective refractory period measurements: Using both custom-made quadripolar electrode inserted on the HRA and two bipolar electrodes (recording and pacing) on the LV, allowed measurement of the effective refractory period (ERP) at the atrial level (atrial effective refractory period, AERP), atrioventricular level (AVERP), and ventricular level (VERP). For ERP measurement, a programmed S1S2 stimulation protocol was performed using double diastolic threshold intensity. The protocol consisted of ten S1-S2 intervals of 150 milliseconds (ms) followed by an S1-S2 interval that was reduced by 1 ms each time, until pacing capture failed three consecutive times. AERP, AVERP, and VERP were measured and recorded prior and after exposure to the used inhibitor, either Tram-34 or BA6b9.

[3] = 20 mg/kg daily for 2 weeks from one week post-MI

SMILES: CCCCCCCn1c(=O)oc2ccccc21 [BA6b9, 3-heptylbenzo[d]oxazol-2(3H)-one]
- reduction of AFIS (isolated rat hearts; 10 μM + 0.3 μM carbachol vs carbachol alone): 48%
- AFIS (AF induction score) (isolated rat hearts; 10 μM + 0.3 μM carbachol, 3.1 with carbachol alone): 1.6
- sustained AF induction (isolated rat hearts; 10 μM + 0.3 μM carbachol, 100% with carbachol alone): 70%
- heart preparations in which AF sustainability was prevented (isolated rat hearts; 10 μM, burst pacing): 30%
- AF induction [1, 3]: markedly attenuates
- EF (ejection fraction) [1, 3]: does not affect
- total AF duration [1, 3]: markedly attenuates
- LA fibrosis ([1]; Masson-trichrome staining after post-MI treatment): reduction
- LA smooth muscle actin (SMA) ([1]; after post-MI treatment): reduction
- AERP (effect) [2]: significantly prolonged
- AVERP (effect) [2]: significantly prolonged
- PR interval (effect) [2]: increasing PR interval
- VERP (effect) [2]: significantly prolonged
- action potential activation current (atrial and ventricular pacing thresholds) [2]: Neither Tram-34 nor BA6b9 affected
- coronary flow (perfusion flow velocity) [2]: no effect
- heart rate (effect) [2]: decreased heart rate
